Experimental data reported in patent publication US20070111251A1, “Chemical address tags” (priority 2003, published 2007).

Legend:
[1] = test system: dsDNA; experiment: Fluorometric titration of styryl dyes with dsDNA in buffer solution; assay type: binding, Salmon; settings: for em^free / Øf^free: free dye; for fluorescence emission increase with DNA versus free compound: highest concentration of DNA tested, 50 μg mL^−1; for Øf^DNA: quantum yield with dsDNA; for Øf^free: quantum yield; for max: spectrophotometric properties of the styryl dyes; for em^DNA: with dsDNA
Method: In some embodiments, the synthesis of compounds B was achieved by refusing with the pyridine derivatives and iodomethane for 2 hours, and compound B crystallized out in ethyl acetate. The condensation with aldehydes (A) and compound B was performed by refusing with piperidine for 2 hours in EtOH. After cooling to room temperature, the crystallized compounds were filtered and washed with ethyl acetate. With these purified compounds, the fluorescence intensity change upon addition of DNA was tested.
With a series of concentrations of dsDNA (double stranded DNA) added to compound 1, a linear increase in the fluorescence intensities was observed. (FIG. 17). […] At the highest concentration of DNA tested (50 μg mL^−1), the fluorescence emission reached up to 13.3 times higher than that of the free compound. Briefly, FIGS. 18A-18C show the absorption and fluorescence spectra of compounds 1, 2, and 3 (Dye 1, 2, 3 [50 μM], dsDNA [50 μg mL^−1]). A blue shift of 17 nm in the emission wavelength upon DNA addition was observed, without a significant excitation wavelength shift. The structure of compound 1 includes a 2,4,5-trimethoxy group from the benzaldehyde moiety and a unique adamantyl pyridinium functionality.
Unless otherwise noted, starting materials and solvents were purchased from commercial suppliers, and used without purification. Ethanol (EtOH) and ethyl acetate (EA) from Acros Organics (Fisher Scientific, UK) were used as the reaction solvents without any prior purification. Salmon testes solid dsDNA, and phosphate buffered saline (PBS) (NaCl 120 mM, KCl 2.7 mM, and phosphate buffer 10 mM, pH=7.4 at 24° C.) were purchased from Sigma-Aldrich and needed no further purification. Fluorescence intensities were measured by a Jobin Yvon Horiba FluoroMAX-3 fluorimeter (Horiba Group, Kyoto, Japan) with a quartz cuvette cell (10 mm×10 mm×4.5 cm; Starna (Atascadero, Calif.). ^1H-NMR (200 MHz) spectra were determined on Gemini 200 spectrometer (Varian, Inc., Palo Alto, Calif.). Chemical shifts were reported in parts per million (ppm) relative to the line of a singlet at 2.50 ppm for DMSO-d6 and coupling constants (j) are in Hertz (Hz). The following abbreviations are used for spin multiplicity: s=singlet, d=doublet, t=triplet, m=multiplet, and b=broad. All dye products were identified by LC-MS from Agilent Technology (Palo Alto, Calif.), using a C18 column (20×4.0 mm), with 4 minutes elution using a gradient of 5-95% CH3CN (containing 1% acetic acid)-H2O (containing 1% acetic acid), with UV detector at %=400 nm and an electrospray ionization source.

[2] = test system: live UACC-62 human melanoma cells; experiment: Cell-based screening of extended styryl library: nuclear staining of live cells; settings: live UACC-62 cells; compounds 1-3 at 500 μM
From the text: In one preferred embodiment, an extended styryl dye library, composed of 855 compounds, was synthesized (See, Example 7) and screened for the subcellular localization in live […] human melanoma cells on glass bottom 96-well plates by the combinatorial library synthesis methods disclosed herein. […] The compounds were resynthesized on large scale for further study. (FIG. 16).
Therefore, both 2,4,5-trunethoxy groups and the adamantyl group are important in the specific interaction of compound 1 and DNA. The three related compounds 1, 2, and 3 were incubated in live UACC-62 human melanoma cells to compare their nuclear localization properties. (FIG. 19).

[3] = pyridine derivatives; cited from earlier work
[4] = test system: HeLa cells; experiment: Kinetic imaging of NBD-triazine probe uptake and sequestration, fitted to nested two-compartment transport model; assay type: cell-based; settings: median over optimal solutions within 5% of the best fit
Method in brief: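 HeLa cells (3000/well, plated 24 h earlier) imaged live with 10 μM NBD probe in RPMI containing 1.0 mM bromophenol blue, about 2 h for influx, then washed and imaged 6 h for efflux, every ~7 min. Perinuclear pixel-intensity CV fitted to a nested two-compartment transport model by simulated annealing.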

| SMILES | Øf^DNA/Øf^free [1] | em^free [1] [nm] | fluorescence emission increase with DNA versus free compound [1] [fold] | Øf^DNA [1] | Øf^free [1] | max [1] [nm] | em^DNA [1] [nm] | nuclear staining / nuclear localization in live cells [2] | pKa [3] | median Pap(cyto) (apparent partition coefficient between extracellular medium and cytosol) [4] | median Pap(ves) (apparent partition coefficient between cytosol and intracellular vesicles, k(ves)in/k(ves)out) [4] | other results |
| --- | --- | --- | --- | --- | --- | --- | --- | --- | --- | --- | --- | --- |
| COc1cc(OC)c(OC)cc1C=Cc1cc[n+](C23CC4CC(CC(C4)C2)C3)cc1.[Br-] [Compound 1, 2-[4-[5-(trimethyoxy)phenyl]-ethenyl-1-adamantyl]-4-methylpyridinium bromide] | 13.3 | 583 | 13.3 | 0.0032 | 0.00024 | 413 | 566 | clearly stains the nucleus of live cells more selectively | – | – | – | blue shift in the emission wavelength upon DNA addition [1]: 17 nm; emission wavelength [1]: 583 nm; excitation wavelength [1]: 413 nm; fluorescence intensity change upon addition of DNA [1]: strong fluorescence increase; linear fluorescence response range ([1]; in PBS, without self-quenching or wavelength shifts): 0.05 to 100 µM |
| COc1cc(OC)c(OC)cc1C=Cc1cc[n+](C)cc1.[I-] [Compound 4, 1-Methyl-4[2-(2,4,5-trimethoxy-phenyl)-vinyl]pyridinium iodide] | – | – | – | – | – | – | – | – | – | – | – | fluorescence intensity change upon addition of DNA [1]: significantly reduced the DNA response |
| COc1cc(C=Cc2cc[n+](C34CC5CC(CC(C5)C3)C4)cc2)cc(OC)c1OC.[Br-] [Compound 2] | 4.3 | 553 | 4.3 | 0.022 | 0.0051 | 366 | 520 | stronger fluorescence backgrounds and spread throughout the cytoplasm | – | – | – | – |
| COc1ccc(CCNc2nc(NCCCCCCNc3ccc([N+](=O)[O-])c4nonc34)nc(NCCc3ccccn3)n2)cc1 [Compound D9] | – | – | – | – | – | – | – | – | ~6.0 | 0.06 | 99497.01 | – |
| O=[N+]([O-])c1ccc(NCCCCCCNc2nc(NCCc3ccccn3)nc(NCCC(c3ccccc3)c3ccccc3)n2)c2nonc12 [Compound F9] | – | – | – | – | – | – | – | – | ~6.0 | 2989.27 | 2940.20 | – |
| COc1ccc(C=Cc2cc[n+](C34CC5CC(CC(C5)C3)C4)cc2)c(OC)c1OC.[Br-] [Compound 3] | 1.5 | 491 | 1.5 | 0.0037 | 0.0024 | 370 | 592 | stronger fluorescence backgrounds and spread throughout the cytoplasm | – | – | – | – |
| COc1cccc(CNc2nc(NCCCCCCNc3ccc([N+](=O)[O-])c4nonc34)nc(NCCc3ccccn3)n2)c1 [Compound B9] | – | – | – | – | – | – | – | – | ~6.0 | 15351.10 | 100.42 | – |
